Results taken from patent US6821999B2 (priority 2001, dated 2004).
Where two headings read alike, the source gives them in different places.

How the values were obtained:
Format in all cases: cell-based, Staphylococcus aureus
S. aureus (MN8) = settings: for TSST-1 produced compared to the control: S. aureus MN8, in the presence of the compound
S. aureus FRI-1187 = settings: S. aureus FRI-1187, in the presence of triclosan
S. aureus FRI-1169 = settings: S. aureus FRI-1169, in the presence of triclosan

Row | Compound | Reduction of Toxin (%) (S. aureus (MN8)) | reduced the amount of toxin produced (S. aureus (MN8)) | TSST-1 produced compared to the control (S. aureus (MN8)) | Reduction of Toxin (%) (S. aureus (MN8); S. aureus MN8, test compound 2 μg/mL, 24 h, vs methanol control) | Reduction of Toxin (%) (S. aureus (MN8); S. aureus MN8, test compound 0.01 μg/mL, 24 h, vs methanol control) | TSST-1 produced compared to the control (S. aureus FRI-1187) | TSST-1 produced compared to the control (S. aureus FRI-1169)
1 | Oc1ccc(Cc2ccccc2)cc1 [4-Hydroxydiphenyl-methane, 4-hydroxydiphenyl methane] | 24% | about 24% |  |  |  |  | 
2 | Oc1c(Cl)cc(Cl)c(Cl)c1Cc1c(O)c(Cl)cc(Cl)c1Cl [Hexachlorophene, hexachlorophene] |  |  | significantly less | 68% |  |  | 
3 | Oc1cc(Cl)ccc1Oc1ccc(Cl)cc1Cl [Triclosan, triclosan] |  |  | significantly less |  | 88% | produced less TSST-1 | produced less TSST-1
